Each block holds one compound with its values, some of them ahead of it.
Tests used:
[1] = target: T1, Protein cereblon (Homo sapiens, UniProt Q96SW2); assay: Induction of CRBN degradation in human HeLa cells incubated for 4 hrs; assay type: cell-based
[2] = target: T1, Protein cereblon; assay: Induction of CRBN degradation in human HeLa cells at 1 uM incubated for 4 hrs relative to control; assay type: cell-based
[3] = target: E3 ubiquitin-protein ligase Mdm2 (Homo sapiens, UniProt Q00987); assay: Displacement of p53 from human MDM2 by HTRF assay
E3 ubiquitin-protein ligase Mdm2, sequence (Q00987 whole entry): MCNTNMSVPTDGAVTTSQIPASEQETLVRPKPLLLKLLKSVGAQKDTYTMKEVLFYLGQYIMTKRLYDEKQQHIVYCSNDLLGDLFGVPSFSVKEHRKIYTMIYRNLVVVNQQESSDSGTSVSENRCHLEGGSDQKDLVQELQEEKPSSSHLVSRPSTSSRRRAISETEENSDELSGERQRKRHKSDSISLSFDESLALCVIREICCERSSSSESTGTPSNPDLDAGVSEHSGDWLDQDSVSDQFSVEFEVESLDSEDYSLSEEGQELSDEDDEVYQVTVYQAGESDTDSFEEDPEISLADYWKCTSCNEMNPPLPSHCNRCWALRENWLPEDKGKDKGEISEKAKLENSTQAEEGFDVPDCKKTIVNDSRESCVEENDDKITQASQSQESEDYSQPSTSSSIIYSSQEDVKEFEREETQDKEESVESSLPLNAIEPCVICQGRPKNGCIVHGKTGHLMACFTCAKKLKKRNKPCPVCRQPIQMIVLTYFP

[4] = system: A549; assay: Antiproliferative activity against human A549 cells; assay type: functional, cell-based
[5] = system: HCT-116; assay: Antiproliferative activity against human HCT-116 cells; assay type: functional, cell-based
[6] = system: HCT-116; assay: Antiproliferative activity against p53 knockout human HCT-116 cells; assay type: functional, cell-based
[7] = Half life in mouse; assay type: ADME, organism-based; settings: in vivo
[8] = AUC in mouse; assay type: ADME, organism-based; settings: in vivo
[9] = system: A549; assay: Antitumor activity against human A549 cells xenografted model assessed as tumor growth inhibition at 30 mg/kg; assay type: functional; settings: read-out: TGI
[10] = target: Tyrosine-protein kinase BTK (Homo sapiens, UniProt Q06187); assay: Induction of BTK degradation in human Ramos cells assessed as maximum degradation at 300 nM relative to control; assay type: cell-based
[11] = target: T2, von Hippel-Lindau disease tumor suppressor (Homo sapiens, UniProt P40337); assay: Binding affinity to human VHL by isothermal calorimetric assay
Target sequence in this assay (P40337 whole entry): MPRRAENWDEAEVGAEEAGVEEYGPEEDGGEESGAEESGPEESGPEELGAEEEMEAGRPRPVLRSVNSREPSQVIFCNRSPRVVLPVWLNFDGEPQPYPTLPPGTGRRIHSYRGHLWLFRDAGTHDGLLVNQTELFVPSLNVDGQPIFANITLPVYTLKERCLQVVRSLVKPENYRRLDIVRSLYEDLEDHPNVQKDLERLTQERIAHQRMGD

[12] = target: T2, von Hippel-Lindau disease tumor suppressor; assay: Induction of pVHL30 degradation in human HeLa cells incubated for 4 hrs; assay type: cell-based
[13] = target: Transcription intermediary factor 1-alpha (Homo sapiens, UniProt O15164); assay: Inhibition of His-tagged TRIM24 (unknown origin) expressed in Escherichia coli BL21(DE3)pLysS competent cells using biotinylated-H3K23ac peptide as substrate incubated for 30 mins by Alphascreen assay
Transcription intermediary factor 1-alpha, sequence (O15164 whole entry): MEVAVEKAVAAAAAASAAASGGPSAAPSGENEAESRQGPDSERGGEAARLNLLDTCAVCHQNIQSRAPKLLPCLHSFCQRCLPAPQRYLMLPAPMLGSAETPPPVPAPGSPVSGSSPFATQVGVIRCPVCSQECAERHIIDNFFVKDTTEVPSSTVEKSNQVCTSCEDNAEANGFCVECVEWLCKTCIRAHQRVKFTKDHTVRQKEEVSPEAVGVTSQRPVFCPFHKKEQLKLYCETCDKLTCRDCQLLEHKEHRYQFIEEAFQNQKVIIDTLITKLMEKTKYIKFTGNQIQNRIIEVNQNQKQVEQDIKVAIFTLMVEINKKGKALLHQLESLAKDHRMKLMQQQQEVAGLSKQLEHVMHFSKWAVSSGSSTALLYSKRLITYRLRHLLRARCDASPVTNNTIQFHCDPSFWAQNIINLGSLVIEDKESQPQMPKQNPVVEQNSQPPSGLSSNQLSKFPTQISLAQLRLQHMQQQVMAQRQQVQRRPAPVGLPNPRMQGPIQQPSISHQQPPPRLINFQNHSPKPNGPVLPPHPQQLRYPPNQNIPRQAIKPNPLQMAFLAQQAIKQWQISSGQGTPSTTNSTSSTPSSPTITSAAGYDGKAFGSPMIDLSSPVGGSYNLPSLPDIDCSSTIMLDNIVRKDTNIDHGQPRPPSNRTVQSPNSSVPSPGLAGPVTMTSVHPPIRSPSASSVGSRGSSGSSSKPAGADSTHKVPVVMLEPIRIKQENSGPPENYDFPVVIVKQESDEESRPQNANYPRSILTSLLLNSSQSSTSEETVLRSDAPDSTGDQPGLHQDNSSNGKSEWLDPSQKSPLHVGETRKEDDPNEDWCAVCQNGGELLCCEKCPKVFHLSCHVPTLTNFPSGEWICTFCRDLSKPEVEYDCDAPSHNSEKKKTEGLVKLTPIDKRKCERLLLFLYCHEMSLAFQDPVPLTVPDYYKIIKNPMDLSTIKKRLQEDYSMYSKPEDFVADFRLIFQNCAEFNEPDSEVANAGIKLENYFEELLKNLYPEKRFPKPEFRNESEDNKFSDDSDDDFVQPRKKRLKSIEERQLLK

[14] = system: HCC827; assay: Antiproliferative activity against human HCC827 cells harboring EGFRDel19 mutant; assay type: functional, cell-based
[15] = system: NCI-H1975; assay: Antiproliferative activity against human NCI-H1975 cells harboring EGFR L858R/T790M double mutant; assay type: functional, cell-based
[16] = target: von Hippel-Lindau disease tumor suppressor/Epidermal growth factor receptor (Homo sapiens, UniProt P00533+P40337); assay: Protac activity at VHL/EGFR Del19 mutant in human HCC827 cells; assay type: cell-based
[17] = system: von Hippel-Lindau disease tumor suppressor/Epidermal growth factor receptor (Homo sapiens), P00533+P40337 [UNDEFINED MUTATION]; assay: Protac activity at VHL/EGFR Del19 mutant in human HCC827 cells assessed as maximum degradation relative to control; assay type: cell-based
[18] = system: HCC827; assay: Antitumor activity against human HCC827 cells xenografted in mouse assessed as tumor growth inhibition at 30 mg/kg; assay type: functional; settings: read-out: TGI
[19] = system: HeLa; assay: Antiproliferative activity against human HeLa cells; assay type: functional, cell-based
[20] = target: Bromodomain-containing protein 4 (Homo sapiens, UniProt O60885); assay: Induction of BRD4 degradation in human HeLa cells assessed as maximum degradation at 10 nM after 12 hrs relative to control; assay type: cell-based
[21] = system: HT-29; assay: Antiproliferative activity against human HT-29 cells; assay type: functional, cell-based
[22] = target: Dual specificity mitogen-activated protein kinase kinase; MEK1/2 (Homo sapiens) (UniProt P36507+Q02750); assay: Induction of MEK degradation in human HT-29 cells assessed as maximum degradation at 100 nM after 12 hrs relative to control; assay type: cell-based
Dual specificity mitogen-activated protein kinase kinase; MEK1/2 (Homo sapiens), sequence (P36507 whole entry, looked up): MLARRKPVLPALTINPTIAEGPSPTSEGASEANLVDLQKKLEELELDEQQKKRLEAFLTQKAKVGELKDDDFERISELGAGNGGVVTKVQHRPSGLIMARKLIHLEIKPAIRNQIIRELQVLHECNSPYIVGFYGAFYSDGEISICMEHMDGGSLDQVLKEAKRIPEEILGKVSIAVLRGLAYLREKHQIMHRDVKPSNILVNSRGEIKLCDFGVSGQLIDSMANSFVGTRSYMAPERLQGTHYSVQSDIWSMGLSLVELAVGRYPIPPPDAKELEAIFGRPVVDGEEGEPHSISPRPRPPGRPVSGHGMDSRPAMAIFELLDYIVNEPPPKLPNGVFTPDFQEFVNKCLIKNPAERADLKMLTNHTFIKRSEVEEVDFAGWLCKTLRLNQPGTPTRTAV
Dual specificity mitogen-activated protein kinase kinase; MEK1/2 (Homo sapiens), sequence (Q02750 whole entry, looked up): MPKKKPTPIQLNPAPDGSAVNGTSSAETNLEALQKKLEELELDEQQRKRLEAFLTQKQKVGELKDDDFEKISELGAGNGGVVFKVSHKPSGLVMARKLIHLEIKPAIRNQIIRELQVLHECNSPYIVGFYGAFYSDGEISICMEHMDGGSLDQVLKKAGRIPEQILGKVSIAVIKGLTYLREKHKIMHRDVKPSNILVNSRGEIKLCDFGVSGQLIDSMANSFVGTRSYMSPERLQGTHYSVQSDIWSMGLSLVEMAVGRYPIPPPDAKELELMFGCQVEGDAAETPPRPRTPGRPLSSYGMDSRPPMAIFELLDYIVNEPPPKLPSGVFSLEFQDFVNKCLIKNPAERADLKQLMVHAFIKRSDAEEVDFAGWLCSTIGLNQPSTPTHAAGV

[23] = target: T1, Protein cereblon; assay: Induction of CRBN degradation in human MM1.S cells assessed as maximum degradation at 100 nM incubated for 24 hrs relative to control; assay type: cell-based
[24] = system: SU-DHL-1; assay: Antiproliferative activity against human SU-DHL-1 cells; assay type: functional, cell-based
[25] = target: ALK tyrosine kinase receptor (Homo sapiens) (UniProt Q9UM73); assay: Induction of ALK degradation in human SU-DHL-1 cells assessed as maximum degradation at 300 nM after 12 hrs relative to control; assay type: cell-based
ALK tyrosine kinase receptor (Homo sapiens), sequence (Q9UM73 19-1620 limits assumed): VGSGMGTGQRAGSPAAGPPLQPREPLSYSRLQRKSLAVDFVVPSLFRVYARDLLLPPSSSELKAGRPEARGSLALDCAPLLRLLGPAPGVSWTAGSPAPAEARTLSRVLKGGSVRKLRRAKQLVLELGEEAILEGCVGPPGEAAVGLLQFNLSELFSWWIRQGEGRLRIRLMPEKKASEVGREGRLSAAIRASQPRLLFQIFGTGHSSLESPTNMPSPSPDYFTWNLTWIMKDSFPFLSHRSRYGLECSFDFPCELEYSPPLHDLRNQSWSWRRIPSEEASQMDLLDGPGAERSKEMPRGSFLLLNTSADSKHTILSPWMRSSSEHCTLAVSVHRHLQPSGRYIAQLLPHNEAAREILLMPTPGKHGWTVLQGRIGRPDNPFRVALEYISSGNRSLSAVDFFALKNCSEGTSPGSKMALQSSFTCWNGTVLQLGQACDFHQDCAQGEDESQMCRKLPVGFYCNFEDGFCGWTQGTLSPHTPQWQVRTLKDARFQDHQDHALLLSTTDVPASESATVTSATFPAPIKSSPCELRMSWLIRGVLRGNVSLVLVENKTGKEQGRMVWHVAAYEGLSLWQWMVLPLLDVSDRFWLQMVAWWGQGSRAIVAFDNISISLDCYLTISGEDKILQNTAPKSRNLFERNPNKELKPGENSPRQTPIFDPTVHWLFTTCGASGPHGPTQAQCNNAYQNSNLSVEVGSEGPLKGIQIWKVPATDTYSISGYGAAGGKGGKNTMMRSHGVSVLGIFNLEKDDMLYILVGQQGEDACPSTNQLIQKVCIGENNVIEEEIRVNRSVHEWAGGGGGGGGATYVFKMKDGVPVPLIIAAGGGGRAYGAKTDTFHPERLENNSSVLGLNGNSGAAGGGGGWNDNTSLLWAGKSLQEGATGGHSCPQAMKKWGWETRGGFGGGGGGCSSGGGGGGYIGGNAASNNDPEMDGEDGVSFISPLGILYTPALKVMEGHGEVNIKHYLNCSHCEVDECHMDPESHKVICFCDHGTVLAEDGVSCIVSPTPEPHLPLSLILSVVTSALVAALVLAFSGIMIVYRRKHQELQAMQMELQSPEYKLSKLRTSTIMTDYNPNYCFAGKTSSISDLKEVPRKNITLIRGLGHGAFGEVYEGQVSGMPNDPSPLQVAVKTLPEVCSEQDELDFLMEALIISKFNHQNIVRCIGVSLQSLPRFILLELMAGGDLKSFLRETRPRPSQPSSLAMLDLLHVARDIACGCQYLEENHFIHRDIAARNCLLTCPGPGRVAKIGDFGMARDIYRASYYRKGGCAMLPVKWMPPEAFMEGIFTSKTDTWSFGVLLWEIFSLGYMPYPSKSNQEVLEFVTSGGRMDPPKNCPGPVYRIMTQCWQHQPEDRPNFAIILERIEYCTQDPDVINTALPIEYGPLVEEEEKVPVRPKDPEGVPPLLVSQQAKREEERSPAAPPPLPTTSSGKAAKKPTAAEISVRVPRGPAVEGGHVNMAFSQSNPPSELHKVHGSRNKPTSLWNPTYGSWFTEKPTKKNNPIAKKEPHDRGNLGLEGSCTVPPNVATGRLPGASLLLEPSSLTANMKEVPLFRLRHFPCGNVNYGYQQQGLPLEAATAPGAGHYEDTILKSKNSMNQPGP

[26] = target: ALK tyrosine kinase receptor (Homo sapiens) (UniProt Q9UM73); assay: Induction of ALK degradation in human SU-DHL-1 cells assessed as maximum degradation at 30 nM after 12 hrs relative to control; assay type: cell-based

T1 sequence (Q96SW2 whole entry): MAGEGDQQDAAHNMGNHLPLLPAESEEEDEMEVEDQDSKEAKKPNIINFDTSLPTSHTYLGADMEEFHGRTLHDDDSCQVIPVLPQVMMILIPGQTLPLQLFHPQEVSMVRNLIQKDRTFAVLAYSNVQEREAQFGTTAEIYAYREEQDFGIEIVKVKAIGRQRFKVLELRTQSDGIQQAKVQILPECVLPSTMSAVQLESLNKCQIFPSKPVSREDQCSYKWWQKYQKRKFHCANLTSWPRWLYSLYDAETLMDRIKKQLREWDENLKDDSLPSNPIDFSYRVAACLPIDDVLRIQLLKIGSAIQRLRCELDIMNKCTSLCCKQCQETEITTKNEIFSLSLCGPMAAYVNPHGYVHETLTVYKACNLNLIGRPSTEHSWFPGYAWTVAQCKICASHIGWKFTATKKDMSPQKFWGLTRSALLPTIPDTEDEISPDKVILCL

SMILES: CCOc1cc(C(C)(C)C)ccc1C1=N[C@@H](c2ccc(Cl)cc2)[C@@H](c2ccc(Cl)cc2)N1C(=O)N1CCN(CC(=O)NCCOCCOCCOCCNC(=O)CN2CCN(C(=O)N3C(c4ccc(C(C)(C)C)cc4OCC)=N[C@H](c4ccc(Cl)cc4)[C@@H]3c3ccc(Cl)cc3)CC2=O)C(=O)C1
Ki [3]: 90 nM
IC50 [4]: 580 nM
IC50 [5]: 1100 nM
IC50 [6]: 21000 nM
half-life [7]: 9.6 h
AUC [8]: 42800 ng·h/mL
inhibition in vivo at 30 mg/kg [9]: 52.4%

SMILES: CN[C@@H](C)C(=O)N[C@H](C(=O)N1C[C@@H](NC(=O)COCCOCCOCCOCCN2CCN(C/C=C/C(=O)N3CCC[C@@H](n4nc(-c5ccc(Oc6ccccc6)cc5)c5c(N)ncnc54)C3)CC2)C[C@H]1C(=O)N[C@H]1CCCc2ccccc21)C1CCCCC1
Emax [10]: 100%

SMILES: CCCOc1cccc(Oc2cc3c(cc2NS(=O)(=O)c2ccc(OC)c(OC)c2)n(C)c(=O)n3C)c1
IC50 [13]: 218 nM

SMILES: Cc1ncsc1-c1ccc(CNC(=O)[C@H]2C[C@H](O)CN2C(=O)[C@H](NC(=O)CCCCCCCCCCn2cc(COc3cc4ncnc(Nc5ccc(F)c(Cl)c5)c4cc3NC(=O)/C=C/N3CCCCC3)nn2)C(C)(C)C)cc1
IC50 [14]: 6 nM
IC50 [15]: > 20 nM
DC50 [16]: 3.57 nM
Emax [17]: 91%
inhibition in vivo at 30 mg/kg [18]: 90%

SMILES: COc1ccc(C2=N[C@@H](c3ccc(Cl)cc3)[C@@H](c3ccc(Cl)cc3)N2C(=O)N2CCNC(=O)C2)c(OC(C)C)c1 [NUTLIN-3]
IC50 [4]: 7900 nM
IC50 [5]: 5000 nM

SMILES: Cc1ncsc1-c1ccc([C@H](C)NC(=O)[C@@H]2C[C@@H](OC(=O)CCCCn3cc(CNC(=O)CC[C@H](NC(=O)c4ccc(NCc5cnc6nc(N)[nH]c(=O)c6n5)cc4)C(=O)O)nn3)CN2C(=O)[C@@H](NC(=O)CCCCCCCCCCNCCCONC(=O)c2ccc(F)c(F)c2Nc2ccc(I)cc2F)C(C)(C)C)cc1
IC50 [21]: 246 nM
Emax [22]: 90%

SMILES: Cc1cc(Nc2ncc(Cl)c(Nc3ccccc3S(=O)(=O)C(C)C)n2)c(OC(C)C)cc1C1CCN(CCCCC(=O)N[C@H](C(=O)N2C[C@H](OC(=O)CCCCn3cc(CNC(=O)CC[C@H](NC(=O)c4ccc(NCc5cnc6nc(N)[nH]c(=O)c6n5)cc4)C(=O)O)nn3)C[C@H]2C(=O)N[C@@H](C)c2ccc(-c3scnc3C)cc2)C(C)(C)C)CC1
IC50 [24]: 200 nM
Emax [25]: 100%

SMILES: Cc1cc(Nc2ncc(Cl)c(Nc3ccccc3S(=O)(=O)C(C)C)n2)c(OC(C)C)cc1C1CCN(CC(=O)NCCNc2cccc3c2C(=O)N(C2CCC(=O)NC2=O)C3=O)CC1 (stereo not given)
IC50 [24]: 16 nM
Emax [26]: 90%

Continued, values first:

DC50 [1]: 200 nM
Emax [2]: 75%
SMILES: Cc1ncsc1-c1ccc(CNC(=O)[C@@H]2C[C@@H](O)CN2C(=O)[C@@H](NC(=O)COCCCCCOCCOCCCCCOCC(=O)NCCNc2cccc3c2C(=O)N(C2CCC(=O)NC2=O)C3=O)C(C)(C)C)cc1 (stereo not given in full)

Kd [11]: 11 nM
DC50 [12]: < 100 nM
EC99 [12]: 10 nM
SMILES: Cc1ncsc1-c1ccc(CNC(=O)[C@@H]2C[C@@H](O)CN2C(=O)[C@@H](NC(=O)COCCOCCOCCOCCOCCOC(=O)N[C@H](C(=O)N2C[C@H](O)C[C@H]2C(=O)NCc2ccc(-c3scnc3C)cc2)C(C)(C)C)C(C)(C)C)cc1

IC50 [19]: 183 nM
Emax [20]: 100%
SMILES: Cc1ncsc1-c1ccc([C@H](C)NC(=O)[C@@H]2C[C@@H](O)CN2C(=O)[C@@H](NC(=O)COCCCOCCNC(=O)C[C@@H]2N=C(c3ccc(Cl)cc3)c3c(sc(C)c3C)-n3c(C)nnc32)C(C)(C)C)cc1

Emax [23]: > 90%
SMILES: Cc1ncsc1-c1ccc(CNC(=O)[C@@H]2C[C@@H](O)CN2C(=O)[C@@H](NC(=O)CCCCOCCCCCOCCCCCCNc2cccc3c2C(=O)N(C2CCC(=O)NC2=O)C3=O)C(C)(C)C)cc1 (stereo not given in full)

— ChEMBL document CHEMBL5223100, “Homobivalent, Trivalent, and Covalent PROTACs: Emerging Strategies for Protein Degradation” (J Med Chem, 2022)
